Paper PMC7406636, “In vivo and in silico characterization of apocynin in reducing organ oxidative stress: A pharmacokinetic and pharmacodynamic study” (Pharmacology Research & Perspectives, 2020)
Like-named read-outs stand apart in the source and are kept apart here.

Tests used:
[1] = PK simulation and model analysis using Phoenix WinNonlin 8.1 (non-compartmental and compartmental); type: in vivo; settings: CD1, mouse, plasma; for AUC / clearance / Vd: iv, 5 mg/kg
Description: PK parameters simulation was performed using the Phoenix WinNonlin 8.1 software (Certara.com). […] Data collected from sampling time 1‐360 minutes after iv injection were then pooled (n = 3) and tested against various compartmental models for a best fit using Phoenix WinNonlin 8.1 software. Parameters included the Akaike's information criterion (AIC), Bayesian information criteria (BIC) and corrected AIC (AICc) calculated using the equation: AICc = AIC +2 × nParm (nParm + 1)/(nObs − nParm − 1). ^21

[2] = tested on: ROS production on brain sections; experiment: In situ ROS production by DHE fluorescence on brain sections after iv injection; type: in vivo, mouse; settings: brain sections harvested at 15 minutes after iv injection
Description: (§1) ROS production was measured using tissue homogenates by three complementary techniques: lucigenin (5 µmol/L)‐chemiluminescence (Molecular Devices); DHE (2 µmol/L) fluorescence on brain tissue sections, and brain tissue lipid peroxidation by malondialdehyde (MDA) assay as described previously. ^5 The specificity of detection of O2·‐ was confirmed by adding tiron (10 mmol/L), a non‐enzymatic O2·‐ scavenger. The enzymatic sources of O2·‐ production were identified using inhibitors targeting nitric oxide synthase (L‐N^G‐Nitro arginine methyl ester, L‐NAME, 100 μmol/L), the mitochondrial complex‐1 enzymes (rotenone, 50 μmol/L), xanthine oxidase (oxypurinol, 250 μmol/L), flavo‐proteins (diphenyleneiodonium, DPI, 20 μmol/L), or superoxide dismutase (SOD) (200 U/mL). The DHE fluorescence was captured using a Nikon fluorescence microscope (Eclipse Ti2‐E). The fluorescence intensity was quantified from at least three random images per section with three sections/per sample.

[3] = LogBB calculation, Log (Cbrain/Cplasma); type: in vivo, mouse
Description: LogBB of apocynin was calculated as described previously ^22 using the equation: LogBB = Log (Cbrain/Cplasma). We used the values from 1 to 30 minutes detected in both plasma and brain tissues for LogBB calculation since apocynin plasma concentration was fallen to ~10 ng/mL (limit of quantification) after 30 minutes of iv injection, n = 3 mice/per time point.

[4] = tested on: O2·‐ production in tissue homogenates; experiment: O2·- production in organ homogenates by lucigenin-chemiluminescence, HFD mouse model; type: in vivo; settings: HFD 16 weeks, apocynin 5 mmol/L in drinking water, vs HFD
Description: as §1, with “Apocynin was supplied in drinking water (5 mmol/L) for the treatment group. Body weights were measured weekly. Mice were sacrificed at 11 months of age and organs were harvested for further experiments. ROS” for “ROS”, “sample. […] Body weights were measured weekly. […] The body weights were recorded and organs were harvested.” for “sample.”

[5] = Body weight in HFD-induced obesity and accelerated aging mouse model; type: in vivo; settings: HFD 16 weeks, apocynin 5 mmol/L in drinking water, vs HFD without apocynin
Description: Apocynin was supplied in drinking water (5 mmol/L) for the treatment group. Body weights were measured weekly. Mice were sacrificed at 11 months of age and organs were harvested for further experiments. […] Male mice at 7 months of age were randomly assigned (n = 6/per group) to a HFD: 45% kcal fat, 20% kcal protein and 35% kcal carbohydrate (Special Diets Services), or a NCD: 9.3% kcal fat, 25.9% kcal protein, and 64.8% kcal carbohydrate (LabDiet Ltd) for 16 weeks. Apocynin was supplied in drinking water (5 mmol/L). Body weights were measured weekly. Mice (at 11 months) were fasted 8 hours before being sacrificed by an overdose of pentobarbital. The body weights were recorded and organs were harvested.

[6] = parameters: method as in PMID 23455672; settings: cited from earlier work

k el ([1]; NCA, iv 5 mg/kg, n = 3, read-out: Kel (elimination rate constant) (converted)): 0.00379 s⁻¹ | half-life ([1]; NCA, iv 5 mg/kg, n = 3, read-out: t 1/2 (terminal half-life, plasma) (converted)): 3 min | AUC ([1]; male, 1-CA (one compartmental analysis), 0-6 h, read-out: AUC0‐∞): 681 ng·h/mL | clearance ([1]; male, 1-CA, 0-6 h, read-out: tvCL1 (typical value of compartmental clearance) (converted)): 92.4 mL/min | Vd ([1]; male, 1-CA, 0-6 h, read-out: tvV1 (typical value of compartmental volume of distribution)): 0.531 L | AUC ([1]; male, 2-CA (two compartmental analysis), 0-6 h, read-out: AUC0‐∞): 711 ng·h/mL | clearance ([1]; male, 2-CA, 0-6 h, read-out: tvCL1 (typical value of compartmental clearance) (converted)): 92.3 mL/min | Vd ([1]; male, 2-CA, 0-6 h, read-out: tvV1 (typical value of compartmental volume of distribution)): 0.531 L | AUC ([1]; male, 3-CA (three compartmental analysis), 0-6 h, read-out: AUC0‐∞): 711 ng·h/mL | clearance ([1]; male, 3-CA, 0-6 h, read-out: tvCL1 (typical value of compartmental clearance) (converted)): 92 mL/min | Vd ([1]; male, 3-CA, 0-6 h, read-out: tvV1 (typical value of compartmental volume of distribution)): 0.531 L | AUC ([1]; male, NCA, iv 5 mg/kg, n = 3, read-out: AUC0‐30min): 643 ng·h/mL | AUC ([1]; male, NCA, iv 5 mg/kg, n = 3, read-out: AUC0‐∞): 644 ng·h/mL | clearance ([1]; male, NCA, iv 5 mg/kg, n = 3, read-out: CL (clearance) (converted)): 129 mL/min/kg | Vd ([1]; male, NCA, iv 5 mg/kg, n = 3, read-out: V d (central volume of distribution)): 0.569 L/kg | clearance ([1]; male, NCA, iv 5 mg/kg, read-out: CL (systemic clearance) (converted)): 129 mL/min/kg | C0 ([1]; male, NCA, 0-30 min, iv 5 mg/kg, n = 3, read-out: C 0 (extrapolated plasma concentration at time 0)): 7360 ng/mL | Cmax ([1]; male, NCA, 0-30 min, iv 5 mg/kg, n = 3, read-out: C max (maximum plasma concentration)): 5490 ng/mL | LogBB ([3]; at 1 minute after iv injection): −0.1 | LogBB at 30 min ([3]; male, CD1, mouse, brain/plasma, 5 mg/kg, at 30 minutes after iv injection): 1
SMILES: COc1cc(C(C)=O)ccc1O [Apocynin, 4‐hydroxy‐3‐methoxyacetophenone]
effect on DHE fluorescence (in situ ROS production) [2]: inhibited effectively | effect on HFD-induced ROS production / oxidative stress in brain, liver and heart [4]: significant reductions | effect on HFD-induced ROS production / oxidative stress in brain, liver and heart ([4]; listed as apocynin): reduced significantly | effect on HFD-induced increase in body weight [5]: significantly reduced | pKa value [6]: 8.17
